Measurements reported in patent US10377753B2, “Substituted 4-azaindoles and their use as GluN2B receptor modulators” (Janssen Pharmaceutica NV, priority 2015, dated 2019).
pIC50: −log10 of the molar value.

Target: cloned human NR1/NR2B ion channels (Homo sapiens (Human), UniProt Q05586+Q13224)
Assay: HNR2BC: effects of test articles on cloned human NR1/NR2B ion channels expressed in mammalian cells (FLIPR calcium flux)
Assay type: cell-based
Details: cloned human NR1/NR2B, Table 5
Summary of the method: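 In a stable Tet-On-induced cell line expressing human GluN1/GluN2B, Calcium 5-loaded cells were preincubated 5 min with compound, then stimulated 5 min with glutamate at ~EC80 plus 10 μM glycine, in pH 7.4 HEPES buffer. FLIPR calcium fluorescence was normalized to control wells.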

cloned human NR1/NR2B ion channels, sequence (Q13224 27-1484, other chains not shown): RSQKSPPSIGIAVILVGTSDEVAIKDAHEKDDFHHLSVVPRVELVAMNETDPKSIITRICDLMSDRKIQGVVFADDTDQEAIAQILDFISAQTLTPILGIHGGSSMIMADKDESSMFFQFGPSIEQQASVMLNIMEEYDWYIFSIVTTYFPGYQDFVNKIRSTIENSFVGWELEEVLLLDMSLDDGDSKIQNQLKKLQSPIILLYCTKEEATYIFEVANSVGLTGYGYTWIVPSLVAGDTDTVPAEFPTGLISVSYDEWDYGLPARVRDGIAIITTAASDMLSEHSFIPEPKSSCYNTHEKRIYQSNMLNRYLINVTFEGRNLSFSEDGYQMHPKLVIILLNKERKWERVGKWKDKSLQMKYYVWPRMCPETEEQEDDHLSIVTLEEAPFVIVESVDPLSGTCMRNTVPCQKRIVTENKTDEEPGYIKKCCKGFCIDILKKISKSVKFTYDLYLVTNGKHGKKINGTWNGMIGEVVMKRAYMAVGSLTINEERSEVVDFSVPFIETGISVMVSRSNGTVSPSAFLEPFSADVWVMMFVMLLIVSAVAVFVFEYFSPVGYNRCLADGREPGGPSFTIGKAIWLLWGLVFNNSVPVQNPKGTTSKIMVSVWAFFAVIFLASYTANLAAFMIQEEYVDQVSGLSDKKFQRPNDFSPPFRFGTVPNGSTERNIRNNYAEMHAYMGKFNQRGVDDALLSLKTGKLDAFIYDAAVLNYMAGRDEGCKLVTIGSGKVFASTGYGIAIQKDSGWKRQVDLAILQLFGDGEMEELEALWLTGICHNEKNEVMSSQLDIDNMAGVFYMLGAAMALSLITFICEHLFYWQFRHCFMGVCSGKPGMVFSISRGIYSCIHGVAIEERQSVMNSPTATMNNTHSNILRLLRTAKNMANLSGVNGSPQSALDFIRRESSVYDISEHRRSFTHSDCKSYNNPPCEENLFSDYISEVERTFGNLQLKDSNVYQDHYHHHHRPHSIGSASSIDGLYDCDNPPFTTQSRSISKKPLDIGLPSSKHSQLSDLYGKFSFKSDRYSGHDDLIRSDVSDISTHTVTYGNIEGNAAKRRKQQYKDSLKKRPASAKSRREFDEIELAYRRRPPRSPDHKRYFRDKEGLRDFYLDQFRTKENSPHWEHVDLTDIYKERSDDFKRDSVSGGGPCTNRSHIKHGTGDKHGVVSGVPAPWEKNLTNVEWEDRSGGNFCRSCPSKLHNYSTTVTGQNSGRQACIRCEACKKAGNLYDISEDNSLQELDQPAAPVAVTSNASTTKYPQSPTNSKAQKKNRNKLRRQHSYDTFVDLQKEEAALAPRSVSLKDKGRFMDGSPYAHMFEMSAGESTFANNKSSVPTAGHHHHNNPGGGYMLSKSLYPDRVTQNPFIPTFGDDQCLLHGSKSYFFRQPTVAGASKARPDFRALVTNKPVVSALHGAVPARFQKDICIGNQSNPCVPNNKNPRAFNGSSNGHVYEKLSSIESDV

| Compound | pIC50 |
| --- | --- |
| CCc1cccc(-c2cnc3ccn(CC(=O)N4CCOCC4)c3c2)c1 [Example 91, 2-[6-(3-ethylphenyl)pyrrolo[3,2-b]pyridin-1-yl]-1-morpholino-ethanone] | 5.80 |
| O=C(Cn1ccc2ncc(-c3cncc(C(F)(F)F)c3)cc21)NC1CC1 [Example 99, N-Cyclopropyl-2-[6-[5-(trifluoromethyl)-3-pyridyl]pyrrolo[3,2-b]pyridin-1-yl]acetamide] | 6.20 |
| O=C(Cn1ccc2ncc(-c3ccc(F)c(F)c3)cc21)NC1CC1 [Example 100, N-Cyclopropyl-2-[6-(3,4-difluorophenyl)pyrrolo[3,2-b]pyridin-1-yl]acetamide] | 6.00 |
| O=C(Cn1ccc2ncc(-c3ccc(F)c(C(F)(F)F)c3)cc21)NC1CC1 [Example 101, N-Cyclopropyl-2-[6-[4-fluoro-3-(trifluoromethyl)phenyl]pyrrolo[3,2-b]pyridin-1-yl]acetamide] | 6.70 |
| O=C(Cn1ccc2ncc(-c3cncc(C(F)(F)F)c3)cc21)N1CCC1 [Example 102, 1-(Azetidin-1-yl)-2-[6-[5-(trifluoromethyl)-3-pyridyl]pyrrolo[3,2-b]pyridin-1-yl]ethanone] | 6.40 |
| O=C(Cn1ccc2ncc(-c3ccc(F)c(F)c3)cc21)N1CCC1 [Example 103, 1-(Azetidin-1-yl)-2-[6-(3,4-difluorophenyl)pyrrolo[3,2-b]pyridin-1-yl]ethanone] | 6.60 |
| O=C(Cn1ccc2ncc(-c3ccc(F)c(C(F)(F)F)c3)cc21)N1CC(F)(F)C1 [Example 106, 1-(3,3-Difluoroazetidin-1-yl)-2-[6-[4-fluoro-3-(trifluoromethyl)phenyl]pyrrolo[3,2-b]pyridin-1-yl]ethanone] | 6.50 |
| O=C(Cn1ccc2ncc(-c3ccnc(C(F)(F)F)c3)cc21)NC1CC1 [Example 110, N-Cyclopropyl-2-[6-[2-(trifluoromethyl)-4-pyridyl]pyrrolo[3,2-b]pyridin-1-yl]acetamide] | 6.60 |
| O=C(Cn1ccc2ncc(-c3cccc(C(F)(F)F)n3)cc21)NC1CC1 [Example 111, N-Cyclopropyl-2-[6-[6-(trifluoromethyl)-2-pyridyl]pyrrolo[3,2-b]pyridin-1-yl]acetamide] | 6.40 |
| Cc1ccc(-c2cnc3ccn(CC(=O)N4CCC4)c3c2)cn1 [Example 112, 1-(Azetidin-1-yl)-2-[6-(6-methyl-3-pyridyl)pyrrolo[3,2-b]pyridin-1-yl]ethanone] | 6.30 |
| N#Cc1ccc(-c2cnc3ccn(CC(=O)N4CCC4)c3c2)cn1 [Example 113, 5-[1-[2-(Azetidin-1-yl)-2-oxo-ethyl]pyrrolo[3,2-b]pyridin-6-yl]pyridine-2-carbonitrile] | 5.30 |
| Fc1ccc(-c2cnc3ccn(Cc4cncnc4)c3c2)cc1F [Example 114, 6-(3,4-Difluorophenyl)-1-(pyrimidin-5-ylmethyl)pyrrolo[3,2-b]pyridine] | < 5.00 |
| Fc1cnc(Cn2ccc3ncc(-c4ccc(F)c(F)c4)cc32)nc1 [Example 115, 6-(3,4-Difluorophenyl)-1-[(5-fluoropyrimidin-2-yl)methyl]pyrrolo[3,2-b]pyridine] | 6.50 |
| O=C(C1CCC1)n1ccc2ncc(-c3ccc(F)c(F)c3)cc21 [Example 116, Cyclobutyl-[6-(3,4-difluorophenyl)pyrrolo[3,2-b]pyridin-1-yl]methanone] | 6.10 |
| O=C(Cn1ccc2ncc(-c3cccc(C(F)(F)F)n3)cc21)N1CC(F)(F)C1 [Example 117, 1-(3,3-Difluoroazetidin-1-yl)-2-[6-[6-(trifluoromethyl)-2-pyridyl]pyrrolo[3,2-b]pyridin-1-yl]ethanone] | 5.30 |

The next molecules have a higher pIC50 than those just listed; values first:

| pIC50 | Compound |
| --- | --- |
| 7.20 | Cc1ccc(-c2cnc3ccn(CC(=O)N4CCOCC4)c3c2)cc1 [Example 90, 1-Morpholino-2-[6-(p-tolyl)pyrrolo[3,2-b]pyridin-1-yl]ethanone] |
| 6.90 | Cc1cc(-c2cnc3c(F)cn(CC(=O)N(C)C)c3c2)ccc1F [Example 92, 2-[3-Fluoro-6-(4-fluoro-3-methyl-phenyl)pyrrolo[3,2-b]pyridin-1-yl]-N,N-dimethyl-acetamide] |
| 7.40 | CN(C)C(=O)Cn1cc(F)c2ncc(-c3ccc(F)c(F)c3)cc21 [Example 93, 2-[6-(3,4-Difluorophenyl)-3-fluoro-pyrrolo[3,2-b]pyridin-1-yl]-N,N-dimethyl-acetamide] |
| 7.20 | CN(C)C(=O)Cn1cc(F)c2ncc(-c3cc(F)c(F)c(F)c3)cc21 [Example 94, 2-[3-Fluoro-6-(3,4,5-trifluorophenyl)pyrrolo[3,2-b]pyridin-1-yl]-N,N-dimethyl-acetamide] |
| 7.40 | CN(C)C(=O)Cn1cc(F)c2ncc(-c3cccc(C(F)F)c3)cc21 [Example 95, 2-[6-[3-(Difluoromethyl)phenyl]-3-fluoro-pyrrolo[3,2-b]pyridin-1-yl]-N,N-dimethyl-acetamide] |
| 7.30 | Cc1csc(-c2cnc3c(F)cn(CC(=O)N(C)C)c3c2)c1 [Example 96, 2-[3-Fluoro-6-(4-methyl-2-thienyl)pyrrolo[3,2-b]pyridin-1-yl]-N,N-dimethyl-acetamide] |
| 7.20 | CN(C)C(=O)Cn1cc(F)c2ncc(-c3ccc(Cl)s3)cc21 [Example 97, 2-[6-(5-Chloro-2-thienyl)-3-fluoro-pyrrolo[3,2-b]pyridin-1-yl]-N,N-dimethyl-acetamide] |
| 7.30 | CN(C)C(=O)Cn1cc(F)c2ncc(-c3ccc(F)cc3)cc21 [Example 98, 2-[3-Fluoro-6-(4-fluorophenyl)pyrrolo[3,2-b]pyridin-1-yl]-N,N-dimethyl-acetamide] |
| 7.50 | O=C(Cn1ccc2ncc(-c3ccc(F)c(C(F)(F)F)c3)cc21)N1CCC1 [Example 104, 1-(Azetidin-1-yl)-2-[6-[4-fluoro-3-(trifluoromethyl)phenyl]pyrrolo[3,2-b]pyridin-1-yl]ethanone] |
| 7.40 | O=C(Cn1ccc2ncc(-c3ccc(F)c(C(F)(F)F)c3)cc21)N1CCCC1 [Example 105, 2-[6-[4-Fluoro-3-(trifluoromethyl)phenyl]pyrrolo[3,2-b]pyridin-1-yl]-1-pyrrolidin-1-yl-ethanone] |
| 6.80 | O=C(Cn1ccc2ncc(-c3ccc(F)c(F)c3)cc21)N1CCOCC1 [Example 107, 2-[6-(3,4-Difluorophenyl)pyrrolo[3,2-b]pyridin-1-yl]-1-morpholino-ethanone] |
| 6.90 | O=C(Cn1ccc2ncc(-c3ccc(F)c(C(F)(F)F)c3)cc21)N1CCOCC1 [Example 108, 2-[6-[4-Fluoro-3-(trifluoromethyl)phenyl]pyrrolo[3,2-b]pyridin-1-yl]-1-morpholino-ethanone] |
| 6.80 | O=C(Cn1ccc2ncc(-c3ccnc(C(F)(F)F)c3)cc21)N1CCC1 [Example 109, 1-(Azetidin-1-yl)-2-[6-[2-(trifluoromethyl)-4-pyridyl]pyrrolo[3,2-b]pyridin-1-yl]ethanone] |
| 7.00 | O=C(Cn1ccc2ncc(-c3ccc(F)c(F)c3F)cc21)N1CCC1 [Example 118, 1-(Azetidin-1-yl)-2-[6-(2,3,4-trifluorophenyl)pyrrolo[3,2-b]pyridin-1-yl]ethanone] |
| 7.30 | O=C(CC1CC1)n1ccc2ncc(-c3ccc(F)c(F)c3)cc21 [Example 119, 2-Cyclopropyl-1-[6-(3,4-difluorophenyl)pyrrolo[3,2-b]pyridin-1-yl]ethanone] |
